Series [1] has as its system hepatitis delta virus (HDV). The format is in vivo, human.
The nature of series [2]: Lonafarnib serum/plasma concentration in HDV patients (LC-MS/MS). Type of series: in vivo, human. The note with it: N=3. The text has this:
As used herein, a serum lonafarnib level or concentration can be measured from a serum sample obtained from a subject periodically (such as weekly, biweekly, monthly or according to other schedules) and the levels during intervening periods can be extrapolated. […] In some embodiments the first measurement is made no earlier than one week after the initiation of oral therapy. Serum levels of lonafarnib can be measured using art-known methods, including radioimmunoassays, chromatographic assays, mass spectrometry and the like. In some embodiments of the invention, patient serum samples were extracted using a protein precipitation method (Acetonitrile).

For series [3] the following is noted: cited from earlier work.
A further series relates to hepatitis B virus (HBV). In words: HBV DNA viral load and HBsAg in patients infected with HBV and HDV. The note with it: 200 mg BID lonafarnib 12 weeks; baseline about 4 log IU/ml; below LOQ of 2 log IU/mL.
The conditions of series [4]: 200 mg BID lonafarnib; Hanrahan et al. 2009, List et al. 2002; cited from earlier work.
Series [5] in a line: Serum ALT values in HDV patients. The format is in vivo, human.
The conditions of series [6]: formulated in crystalline forms; cited from earlier work.
The nature of series [7]: Adverse events / tolerability in HDV patients. The note with it: N=3.
The conditions of series [8]: Norvir package insert, cited from earlier work.

Each structure is given as a SMILES string. “And” between values parts separate entries of the source, which are not always exact repeats. Equal entries are not always repeated. Where two headings read alike, the source gives them in different places.

Excerpt for hepatitis B virus (HBV): The term “HBV viral load” of a human serum or plasma sample refers to the number of copies of human HBV DNA in a given amount of human serum or plasma sample. HBV DNA may be detected and quantitated using real-time PCR. Commercial assays for quantitating HBV DNA are available. In the United States, Abbott offers the RealTime HBV assay, which is an in vitro PCR assay for the quantitation of HBV DNA in human serum or plasma. A CE certified kit for real-time PCR-based detection of HBV is commercially available from Analytik Jena, Germany (RoboGene® HBV DNA Quantification Kit 2.0).

Turning to `NC(=O)N1CCC(CC(=O)N2CCC([C@H]3c4ncc(Br)cc4CCc4cc(Cl)cc(Br)c43)CC2)CC1` [lonafarnib], the “Δ log Baseline to Day 28” value is −1.85 log and −1.06 log and −1.98 log in [1] (200 mg BID lonafarnib, individual patients 4-6); −1.95 log and −1.97 log and −2.07 log in series [1] (300 mg BID lonafarnib, individual patients 1-3). In addition, the “Mean Serum Concentrations (lonafarnib)” value in series [2] (Day 7, LNF 200 mg BID) is 2555 ng/mL; in series [2] (Day 7, LNF 300 mg BID), 2994 ng/mL; in series [2] (Day 14, LNF 200 mg BID) it was 2959 ng/mL; in series [2] (Day 14, LNF 300 mg BID) it was 1548 ng/mL; in series [2] (Day 28, LNF 200 mg BID) it was 2771 ng/mL; in series [2] (Day 28, LNF 300 mg BID), 1984 ng/mL. Moreover, the “Mean Serum Concentrations (lonafarnib)” value is 1656 ng/mL in series [2] (Day 56, LNF 200 mg BID); 2032 ng/mL in [2] (Day 56, LNF 300 mg BID); 443 ng/mL in [2] (Day 84, LNF 200 mg BID); 977 ng/mL in series [2] (Day 84, LNF 300 mg BID). Further, the stability in solution result in series [3] (by pH) is listed as “stable at neutral pH but will hydrolyze in acidic or basic conditions”. For the same compound, in series [3], the water solubility entry is “poorly water soluble”. The hygroscopicity entry in [3] (crystalline solid) is recorded as “non-hygroscopic”. Moreover, in series [3] (solid state), the thermal stability entry is “thermally stable”. Moreover, the “HBV VL (HBV DNA level) after suppression, patient A-001-5” value with hepatitis B virus (HBV) is “approximately 1.5 log IU/ml”. Besides, the “tolerability in cancer patients” value in [4] is on record as “well tolerated”. Moreover, the “ALT following ALT flare, patient A-001-5” value in series [5] (200 mg BID lonafarnib) is “ALT normalization”. The “ALT following ALT flare, patient A-001-1” value in series [5] (300 mg BID lonafarnib) is “ALT normalization”. In addition, the bioavailability in animals entry in series [6] was “low and variable bioavailability”. In addition, the “Anorexia, Grade 2” value in [7] (LNF 200 mg BID) and in [7] (LNF 300 mg BID) was “✓” throughout. The “Diarrhea, Grade 2” value in series [7] (LNF 200 mg BID) and in series [7] (LNF 300 mg BID) was “✓” throughout. Besides, the “Fatique, Grade 2” value in series [7] (LNF 200 mg BID) and in [7] (LNF 300 mg BID) was “✓” each time. The “Nausea, Grade 2” value in [7] (LNF 200 mg BID) and in [7] (LNF 300 mg BID) was “✓” throughout. Also, the “Wt Loss, Grade 2” value in series [7] (LNF 200 mg BID) and in series [7] (LNF 300 mg BID) was “✓” in each case.

For `CC(C)c1nc(CN(C)C(=O)N[C@H](C(=O)N[C@@H](Cc2ccccc2)C[C@H](O)[C@H](Cc2ccccc2)NC(=O)OCc2cncs2)C(C)C)cs1` [ritonavir], the “increase in AUC of the co-administered primary drug” value in [8] (Fluticasone propionate, aqueous nasal spray) was 350 fold; in [8] (sidenafil), 11 fold; in series [8] (trimethoprim) it was 1.2 fold.
